According to patent US20140037721A1, “Pharmaceutical Composition” (Alpharma pharmaceuticals LLC, priority 2007, published 2014):
Counter-ions that a name gives are not always drawn.

Experiments:
[1] = in comparison to a 15 mg dose of hydrocodone
opioid receptors = conditions: cited from earlier work
[2] = cited from earlier work

Row | Compound | Equianalgesic Calculated Dose [1] [mg] | other results
1 | COc1ccc2c3c1O[C@H]1[C@@H](O)C=C[C@H]4[C@@H](C2)N(C)CC[C@@]341 [Codeine, codeine] | 90.0 | 
2 | COc1ccc2c3c1OC1C(=O)CC[C@H]4[C@@H](C2)N(C)CC[C@]314 (stereo partly drawn) [Hydrocodone, 4,5-epoxy-3-methoxy-17-methylmorphinan-6-one] | 15.0 | 
3 | CN1CC[C@]23CCCC[C@H]2[C@H]1Cc1ccc(O)cc13 [Levorphanol, levorphanol] | 1.8 | 
4 | CCC(=O)C(CC(C)N(C)C)(c1ccccc1)c1ccccc1 (stereo not drawn) [Methadone, methadone] | 9.0 | 
5 | COc1ccc2c3c1OC1C(=O)CC[C@@]4(O)[C@@H](C2)N(C)CC[C@]314 (stereo partly drawn) [Oxycodone, 4,5-epoxy-14-hydroxy-3-methoxy-17-methylmorphinan-6-one] | 13.5 | 
6 | C[C@H]1[C@H]2Cc3ccc(O)cc3[C@]1(C)CCN2CC1CC1 [cyclazocine] |  | duration of action after oral administration (opioid receptors; in vivo, po): ~24 h
7 | O=C1CC[C@@]2(O)[C@H]3Cc4ccc(O)c5c4[C@@]2(CCN3CC2CC2)[C@H]1O5 [hydrochloride salt of naltrexone, naltrexone hydrochloride] |  | solubility in water [2]: about 100 mg/cc
8 | O=C1CC[C@@]2(O)[C@H]3Cc4ccc(O)c5c4[C@@]2(CCN3CC2CC2)[C@H]1O5 [naltrexone] |  | blockade of morphine effects (opioid receptors; normal volunteers, three 100-mg doses, MS Contin): blocked
9 | meperidine | 135.0 | 
